Measurements: patent publication US20170273922A1, “UREA AND BIS-UREA BASED COMPOUNDS AND ANALOGUES THEREOF USEFUL IN THE TREATMENT OF ANDROGEN RECEPTOR MEDIATED DISEASES OR DISORDERS” (THE ROYAL INSTITUTION FOR THE ADVACEMENT OF LEARNING/MCGILL …, priority 2014, published 2017)
Entries after “also recorded” stand apart in the source; their conditions may differ.

Experiments:
[1] = molecular target: T1, H874Y mutant of full-length AR (Homo sapiens, UniProt P10275, H875Y); experiment: AR H874Y mutant PSA-luc reporter assay in PC3 cells; type: cell-based; conditions: for inhibition of DHT-induced transactivation of H874Y mutant AR (PSA-luc): 10 nM DHT, PC3 cells, 24 h
T1 sequence (P10275 1-920 H875Y): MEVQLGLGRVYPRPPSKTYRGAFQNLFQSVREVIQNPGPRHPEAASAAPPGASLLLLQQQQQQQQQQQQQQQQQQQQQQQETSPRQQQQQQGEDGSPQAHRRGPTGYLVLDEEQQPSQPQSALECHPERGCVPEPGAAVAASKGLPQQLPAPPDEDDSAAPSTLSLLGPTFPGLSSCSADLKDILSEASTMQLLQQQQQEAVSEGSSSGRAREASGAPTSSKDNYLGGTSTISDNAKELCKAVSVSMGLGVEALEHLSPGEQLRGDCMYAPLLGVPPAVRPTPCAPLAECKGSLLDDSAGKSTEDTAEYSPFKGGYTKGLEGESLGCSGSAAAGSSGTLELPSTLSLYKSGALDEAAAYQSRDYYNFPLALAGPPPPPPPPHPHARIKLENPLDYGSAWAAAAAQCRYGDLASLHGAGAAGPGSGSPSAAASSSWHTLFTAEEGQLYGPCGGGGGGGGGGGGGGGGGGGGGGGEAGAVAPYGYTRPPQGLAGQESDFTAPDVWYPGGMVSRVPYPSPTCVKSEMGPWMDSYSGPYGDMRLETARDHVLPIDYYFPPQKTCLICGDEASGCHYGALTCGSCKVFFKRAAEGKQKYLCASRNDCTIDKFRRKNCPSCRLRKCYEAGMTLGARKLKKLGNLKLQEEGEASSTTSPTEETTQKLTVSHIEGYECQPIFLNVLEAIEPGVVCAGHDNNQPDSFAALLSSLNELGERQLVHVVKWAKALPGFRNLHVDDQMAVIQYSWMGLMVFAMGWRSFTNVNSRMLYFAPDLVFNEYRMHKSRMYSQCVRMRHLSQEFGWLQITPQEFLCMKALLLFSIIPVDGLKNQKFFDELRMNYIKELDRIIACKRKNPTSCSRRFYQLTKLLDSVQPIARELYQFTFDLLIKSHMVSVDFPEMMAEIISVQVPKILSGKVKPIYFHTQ

[2] = system: LNCaP cells; experiment: Western blot analysis of apoptosis in LNCaP cells; type: cell-based; conditions: whole medium, 24 h
Protocol: Experiments were in duplicate and repeated three times. […] LNCaP cells in whole medium were exposed to DMSO vehicle control or compounds for 24 h.

[3] = system: 22Rv1 cells; experiment: Western blot analysis of apoptosis in 22Rv1 cells; type: cell-based; conditions: phenol red-free medium+10% CS-FBS, 24 h
Text: A) The 22Rv1 cells express substantial level of AR-Vs, which include AR-V7 and other AR variants lacking the LBD. The ARs were probed by N-terminal directed AR antibody (N20, Santa Cruz); B) The 22Rv1 cells were androgen-starved (in phenol red-free medium+10% CS-FBS) for 3 days to ensure the full-length AR expressed in 22Rv1 are not activated. The 22Rv1 cells were subsequently co-transfected with PSA-luc and pRL-TK plasmids. […] Cells in phenol red-free medium+10% CS-FBS were exposed to DMSO or compounds for 24 h and harvested for Western blot analysis.

[4] = molecular target: T2, full-length IRF3 (Homo sapiens, UniProt Q14653); experiment: Full-length IRF3 ISRE-luc reporter assay; type: cell-based; conditions: PC3 cells, 24 h
T2 construct: co-transfected with full-length IRF3 or IRF3DBD-AR(1-547) expressing plasmids; expressed in transfected cells
T2 sequence (Q14653 1-427): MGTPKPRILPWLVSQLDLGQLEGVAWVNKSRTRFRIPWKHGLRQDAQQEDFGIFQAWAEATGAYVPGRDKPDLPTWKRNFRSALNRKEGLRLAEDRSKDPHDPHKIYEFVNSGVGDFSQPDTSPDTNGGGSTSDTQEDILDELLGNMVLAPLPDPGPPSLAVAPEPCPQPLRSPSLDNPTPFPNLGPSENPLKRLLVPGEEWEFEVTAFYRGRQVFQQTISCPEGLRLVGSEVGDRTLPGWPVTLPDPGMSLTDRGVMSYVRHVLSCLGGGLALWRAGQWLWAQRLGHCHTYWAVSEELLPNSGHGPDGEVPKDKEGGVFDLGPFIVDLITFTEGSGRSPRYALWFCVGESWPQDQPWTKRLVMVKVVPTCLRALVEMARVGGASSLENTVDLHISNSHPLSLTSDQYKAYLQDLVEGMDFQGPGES
Text: For all of the others, cells were co-transfected with full-length IRF3 or IRF3DBD-AR(1-547) expressing plasmids and with the ISRE-luc reporter and pRL-TK plasmids. […] As IRF3DBD-AR(1-547) contains the DBD of IRF3, ISRE-luc reporter instead of the PSA-luc reporter was used in our assays.
HEK293 cells were co-transfected with IRF3DBD(1-133) or IRF3DBD-AR(1-547) or IRF3DBD-AR(181-547) or full-length IRF3 expressing plasmids and with the ISRE-luc reporter and the Renilla luciferase pRL-TK plasmids.
Here, IRF3-AR(1-547) is the fusion of IRF3 DBD with the AR NTD (1-547). […] The plasmids expressing IRF3-AR(1-547) (A) or wild-type IRF3 (B) or IRF3 DBD (for NT) as well as ISRE-luc and pRL-TK were transiently transfected into PC3 cells. […] Bic, bicalutamide; EPI, EPI-001.

[5] = molecular target: T3, H874Y mutant of full-length AR in 22Rv1 cells (Homo sapiens, UniProt P10275, H875Y); experiment: PSA-luc reporter assay in 22Rv1 cells, DHT-induced (endogenous H874Y full-length AR); type: cell-based
T3 sequence (P10275 1-920 H875Y): T1 sequence (P10275 1-920 H875Y)

[6] = system: VP16-AR(507-919); experiment: VP16-AR(507-919) (NTD-deleted) PSA-luc reporter assay; conditions: 10 nM DHT, 24 h; PC3 or HEK293 cells
[7] = MTT assay (cytotoxicity), 22Rv1 cells; type: cell-based; conditions: human, 22Rv1 cells
Procedure, shortened: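 Following overnight attachment at 6-7×10^3 cells per well, cultures receive compound for 72 h in serum-containing (10% FBS) RPMI 1640. MTT then quantifies surviving cells, with each experiment done in triplicate and repeated at least twice.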

| activity against wild-type IRF3 (ISRE-luc) [4] | inhibition of DHT-induced AR activation in 22Rv1 cells (PSA-luc) ([5]; 10 nM DHT, 24 h) | inhibition of DHT-induced AR activation in 22Rv1 cells (PSA-luc) ([5]; 1 μM) | SMILES | agonism of AR H874Y mutant [1] | inhibition of DHT-induced transactivation of H874Y mutant AR (PSA-luc) [1] | apoptosis in LNCaP cells [2] | apoptosis in 22Rv1 cells [3] | inhibition of DHT-induced activation of VP16-AR(507-919) (PSA-luc) [6] | IC50 at 72 h ([7]; 72 h, Table 4.1) [µM] | IC50 at 72 h ([7]; 72 h treatment, Table 6.1) [µM] |
| --- | --- | --- | --- | --- | --- | --- | --- | --- | --- | --- |
|  |  |  | O=C(Nc1cccc(C(F)(F)F)c1)Nc1ccc([N+](=O)[O-])c(C(F)(F)F)c1 [Compound 442] | non-agonist | dose-dependently suppressed; also recorded: dose-dependently inhibit | induced apoptosis | induced apoptosis |  |  |  |
|  |  |  | N#Cc1ccc(NC(=O)Nc2cccc(C(F)(F)F)c2)cc1C(F)(F)F [Compound 467] | non-agonist | dose-dependently suppressed; also recorded: dose-dependently inhibit | induced apoptosis | induced apoptosis |  |  |  |
|  |  |  | N#Cc1ccc(NC(=O)Nc2cccc(C(F)(F)F)c2)cc1Cl [Compound 492] | non-agonist | dose-dependently suppressed; also recorded: dose-dependently inhibit |  |  |  |  |  |
| inactive | good activity |  | O=C(N/C=C/c1cccc(C(F)(F)F)c1)Nc1ccncn1 [Compound 562] |  | inhibit |  |  | inactive |  |  |
|  |  |  | O=C(Nc1ccc(Br)nc1)Nc1cc(C(F)(F)F)cc(C(F)(F)F)c1 [Compound 566] |  |  |  |  |  | 1.1 |  |
| inactive | suppressed; also recorded: good activity | showed inhibitory activity | O=C(Nc1cccc(C(F)(F)F)c1)Nc1ccc(NC(=O)c2ccccc2F)c(C(F)(F)F)c1 [Compound 746] |  | inhibit |  |  | inactive |  | 2.2 |
